# Literature values, collected in patent US20220088278A1, “Covered Stent For Local Drug Delivery” (BIOTRONIK AG, priority 2019, published 2022).
# Tested on: main bile duct of pancreatic cancer patients
# Conditions: thirty-six pancreatic cancer patients
smiles,measurement,value
CC(=O)O[C@H]1C(=O)[C@@]2(C)[C@H]([C@H](OC(=O)c3ccccc3)[C@]3(O)C[C@H](OC(=O)[C@H](O)[C@@H](NC(=O)c4ccccc4)c4ccccc4)C(C)=C1C3(C)C)[C@]1(OC(C)=O)CO[C@@H]1C[C@@H]2O [paclitaxel],duct patency duration versus covered stent without drug,did not significantly differ
